Data set [1] concerns the target prostaglandin-A isomerase (PGAI). Nature of the data set: Prostaglandin-A isomerase (PGAI) inhibiting action, PGAI preparation from the blood-plasma of pigs. Format: biochemical. Particulars: read-out: I50% inhibiting levels in final concentrations, PGAI. From the text: (§1) The I50%, i.e. the index of inhibition is defined as the concentration of the substance inhibiting to 50% the function of the corresponding enzyme.

The target of data set [2] is T1, prostaglandin dehydrogenase (PGDH) (Sus scrofa, UniProt A0ACM8QJV0).
T1 construct: PGDH preparation from pig-lung; from tissue; host or cells: pig lung
T1 sequence (A0ACM8QJV0 1-266): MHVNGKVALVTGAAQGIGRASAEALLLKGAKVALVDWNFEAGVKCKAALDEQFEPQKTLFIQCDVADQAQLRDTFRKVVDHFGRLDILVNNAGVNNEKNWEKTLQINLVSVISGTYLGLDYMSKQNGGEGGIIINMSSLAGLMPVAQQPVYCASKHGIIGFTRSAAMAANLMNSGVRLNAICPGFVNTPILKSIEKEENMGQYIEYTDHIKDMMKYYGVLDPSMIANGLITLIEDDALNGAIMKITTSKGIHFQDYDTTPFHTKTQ
Description: Prostaglandin dehydrogenase (PGDH) inhibiting action, PGDH preparation from pig-lung. It is filed as biochemical. As to conditions: read-out: I50% inhibiting levels in final concentrations, PGDH.
Text: as §1

Data set [3] can be described thus: Hypotensive action in narcotized cats. Format: in vivo. Particulars: pentobarbital narcosis. On the procedure: The substances were administered in doses of 5, 2.5 and 1 mg./kg., respectively, and Hydralazine (1-hydrazinophthalazine hydrochloride) was used as reference compound.
A short description of another data set: in vivo. Particulars: mouse, mice, oral, read-out: Acute oral toxicity on mice LD50.
Data set [4] can be described thus: Systolic blood pressure in the caudal artery of spontaneously hypertensive (Wistar-Okamoto) rats, oral treatment. Format: in vivo. Particulars: for decrease in systolic blood pressure: oral.

The structures appear in SMILES notation.

Usually LD50 stands for the dose at which mortality reaches 50%.

Regarding `CCOC(=O)c1cnn(-c2ccc(NC3CCCCC3)nn2)c1N` [Example 5, 3-Cyclohexylamino-A], in data set [1], the IC50 is 100 µM.

On to `CCOC(=O)c1cnn(-c2ccc(NCc3ccco3)nn2)c1N` [Example 6, 3-Furfurylamino-A], for which the values for the IC50 in data set [1] and in data set [2] were 50 µM and 55 µM, respectively.

On to `CCOC(=O)c1cnn(-c2ccc(NCc3ccccc3)nn2)c1N` [Example 7, 3-Benzylamino-A], for which the “Decrease in blood pressure in Hgmm by 1 mg./kg.” value (“Decrease in blood pressure” below) in data set [3] is recorded as -15 Hgmm. For the same compound, the LD50 in the data set “in vivo” is 1000 mg/kg.

On to `CCOC(=O)c1cnn(-c2ccc(NCCN(CC)CC)nn2)c1N` [Example 11, 3-(2-Diethylaminoethylamino)-A], for which the IC50 in data set [1] came out at 44 µM.

With `CCOC(=O)c1cnn(-c2ccc(NCc3ccccn3)nn2)c1N` [Example 16, 3-(2Pyridylmethylamino)-A], the IC50 came to 75 µM in data set [1] and 150 µM in data set [2].

For `CCOC(=O)c1cnn(-c2ccc(NCc3cccnc3)nn2)c1N` [Example 17, 3-(3-Pyrdiylmethylamino)-A], the IC50 in data set [1] stood at 25 µM; in data set [2] it was 200 µM.

For the compound `CCOC(=O)c1cnn(-c2ccc(NCc3ccncc3)nn2)c1N` [Example 18, 3-(4-Pyridylmethylamino)-A], the IC50 in data set [1] amounted to 36 µM.

`CCOC(=O)c1cnn(-c2ccc(NC(C)c3ccccc3)nn2)c1N` (centres unmarked) [Example 20, 3-(1-Phenylethylamino)-A]: the IC50 in data set [1] was found to be 180 µM.

Regarding `CN(N)c1ccc(-n2ncc(C#N)c2N)nn1` [Example 30, 3-(1-methylhydrazino)-6-(4-cyano-5-amino-1-pyrazolyl)-pyridazine], the “Decrease in blood pressure” value in data set [3] was -40 Hgmm. Moreover, in data set [4] (against Hydralazine), the tachycardia result is given as “does not cause any significant tachycardia”. In addition, the “decrease in systolic blood pressure” value is listed as 31% in data set [4] (20 mg./kg., after 2 hours); 16% in data set [4] (20 mg./kg., after 5 hours); 15% in data set [4] (20 mg./kg., after 24 hours). Moreover, the LD50 in “in vivo” is 200 mg/kg.

Regarding `NNC(=O)c1cnn(-c2ccc(N(CCO)CCO)nn2)c1N` [Example 31, 3-[bis(2-Hydroxyethyl)-amino]-6-(4-carbazoyl-5-amino-1-pyrazolyl)-pyridazin], the “Decrease in blood pressure” value in data set [3] is reported as -10 Hgmm. Besides, in the data set “in vivo”, the LD50 was 250 mg/kg.

`NNC(=O)c1cnn(-c2cccnn2)c1N` [Example 32]: the “Decrease in blood pressure” value in data set [3] is -10 Hgmm. Also, the LD50 in “in vivo” is 200 mg/kg.

For `COc1ccc(CCNc2ccc(-n3ncc(C(=O)NN)c3N)nn2)cc1OC` [Example 33, 3-(3,4-Dimethoxyphenylethyl-amino)-B], the “Decrease in blood pressure” value in data set [3] is listed as -10 Hgmm. Besides, the LD50 in the data set “in vivo” is ~150 mg/kg.

On to `Cl.NNc1nncc2ccccc12` [Hydralazine, 1-hydrazinophthalazine hydrochloride, reference compound], for which the “Decrease in blood pressure” value in data set [3] is given as -40 Hgmm. Besides, the IC50 in data set [1] came to 90 µM. Besides, the “decrease in systolic blood pressure” value in data set [4] (10 mg./kg. (reference), after 2 hours) is recorded as 21%; in data set [4] (10 mg./kg. (reference), after 5 hours) it was 22%; in data set [4] (10 mg./kg. (reference), after 24 hours), 15%.

The record behind these values is US4251658A, “3-(1-Pyrazolyl)-pyridazine derivatives” (Richter Gedeon Vegyeszeti Gyar Rt., priority 1977, dated 1981).
